# Data from US8242102B2, “Quinoline compounds suitable for treating disorders that respond to modulation of the serotonin 5-HT6 receptor” (Abbott GmbH & Co. KG, priority 2007, dated 2012).
# Where a name gives a salt, the structure may show the parent alone.
# Target: T1, dopamine D2 receptor (Homo sapiens, UniProt P14416)
# T1 construct: expressed in transfected cells; host or cells: HEK293
# Experiment: Dopamine D2 receptor binding assay, displacement of [125I]-iodospiperone
# Details: saturation binding, HEK293 dopamine D2 membranes; read-out: KD of radioligand
# Experimental: (§1) 1. Preparation of Membranes by Ultrasonic Treatment and Differential Centrifugation
# The pellets were stored at −80° C. until use. […] (Beckman Ultrazentrifuge XL 80).
# (§2) 2. Receptor Binding Experiments
# a) Dopamine D2 Receptor Binding Assay
# Non-specific binding was defined with 1 μM haloperidol.
# T1 sequence (P14416 whole entry): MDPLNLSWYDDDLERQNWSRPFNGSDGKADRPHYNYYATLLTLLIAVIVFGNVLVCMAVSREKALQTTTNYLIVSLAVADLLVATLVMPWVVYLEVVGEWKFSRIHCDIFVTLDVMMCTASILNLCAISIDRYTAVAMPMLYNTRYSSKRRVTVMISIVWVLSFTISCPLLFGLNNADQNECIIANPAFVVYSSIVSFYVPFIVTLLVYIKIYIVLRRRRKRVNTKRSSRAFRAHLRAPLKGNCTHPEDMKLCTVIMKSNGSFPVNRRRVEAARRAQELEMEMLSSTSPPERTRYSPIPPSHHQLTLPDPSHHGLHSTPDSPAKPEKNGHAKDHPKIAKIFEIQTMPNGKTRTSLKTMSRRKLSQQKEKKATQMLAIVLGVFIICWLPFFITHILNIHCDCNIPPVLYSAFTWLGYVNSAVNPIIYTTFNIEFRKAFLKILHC
row,Kd [nM],Compound
1,0.22,iodospiperone [[^125I]-iodospiperone]

# Target: T2, h-5-HT6 receptor (Homo sapiens, UniProt P50406)
# T2 construct: expressed in transfected cells; host or cells: HEK293
# T2 sequence (P50406 whole entry): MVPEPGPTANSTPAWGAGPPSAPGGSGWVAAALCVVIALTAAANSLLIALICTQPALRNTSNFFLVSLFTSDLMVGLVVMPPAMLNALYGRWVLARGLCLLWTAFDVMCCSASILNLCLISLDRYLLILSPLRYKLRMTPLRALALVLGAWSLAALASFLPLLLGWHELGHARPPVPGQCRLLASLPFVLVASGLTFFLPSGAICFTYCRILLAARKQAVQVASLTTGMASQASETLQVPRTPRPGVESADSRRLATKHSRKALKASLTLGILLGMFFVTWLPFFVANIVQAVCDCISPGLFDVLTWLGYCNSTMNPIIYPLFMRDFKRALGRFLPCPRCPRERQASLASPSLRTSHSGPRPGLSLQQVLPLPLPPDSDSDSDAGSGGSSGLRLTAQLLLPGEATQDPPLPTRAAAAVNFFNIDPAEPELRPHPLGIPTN
# Experiment: 5-HT6 receptor binding assay, displacement of [3H]-LSD
# Details: membranes of HEK293 cells expressing h-5-HT6, 1 nM [3H]-LSD
# Experimental: Displacement of Radioligands Binding to the Following Cloned Human Receptors
# as §1
# Cells from stable clonal cell lines expressing the corresponding receptor (5-HT6, 1-adrenergic, dopamine D2 or histamine H1 receptors) were washed with PBS (w/o Ca^++, Mg^++) and harvested in PBS with 0.02% EDTA. The cells were collected by centrifugation at 500 g for 10 min. at 4° C., washed with PBS and centrifuged (500 g, 10 min. 4° C.). The pellets were stored at −80° C. until use. For membrane preparation, the thawed cell pellet was resuspended in ice-cold sucrose buffer (0.25 M sucrose, 10 mM Hepes (pH 7.4), 1 mM Phenylmethylsulfonyl fluoride (PMSF) in DMSO, […] Pepstatin-A, 3 mM EDTA, 0.025% Bacitracin) and homogenized with a Branson Sonifier W-250 (Settings: Timer 4; Output Control 3; Duty Cycle constant; 2 to 3 cycles). Cell disruption was checked with the aid of a microscope. Remaining unbroken cells were pelleted at 1,000 g for 10 min. at 4° C. The sucrose buffer supernatant was then centrifuged at 60,000 g for 1 h at 4° C. (Beckman Ultrazentrifuge XL 80). The pellet was resuspended in 30 ml ice-cold Tris buffer (20 mM TRIS (pH 7.4), […] Pepstatin A, 0.1 mM PMSF, 3 mM EDTA) by pipetting through a 10 ml serological pipet and centrifuged for 1 h at 4° C. at 60,000 g. A final resuspension was performed in a small volume of ice-cold Tris buffer (see above) by pressing through a serological pipet followed by ultrasonic treatment with a Branson Sonifier W-250 (Settings: Timer 1; Output Control 3; Duty Cycle constant; 1 cycle). Protein concentration was determined (BCA-Kit; Pierce) and aliquots stored at −80° C. or in liquid nitrogen for long-term storage.
# as §2
# All receptor binding experiments were carried out in the corresponding assay buffer in a total volume of 200 μl in the presence of various concentrations of test compound (10^−5 M to 10^−9 M, tenfold serial dilution, duplicate determinations). The assays were terminated by filtration on polyethylenimine (PEI 0.1% or 0.3%) presoaked Packard Unifilter Plates (GF/C or GF/B) with a Tomtec MachIII U 96 well-plate harvester. After the plates had been dried for 2 h at 55° C. in a drying chamber scintillation cocktail (BetaPlate Scint; PerkinElmer) was added. Radioactivity was measured in a Microbeta Trilux two hours after the addition of the scintillation mixture. Data derived from liquid scintillation counting were analysed by iterative non-linear regression analysis with the use of the Statistical Analysis System (SAS): a program similar to “LIGAND” as described by Munson and Rodbard (Analytical Biochemistry 107, 220-239 (1980).
# a) 5-HT6 Receptor Binding Assay
# HEK293 cells stably expressing the h-5-HT6 receptor (NCBI Reference Sequence XM 001435) were cultured in RPMI1640 medium supplemented with 25 mM HEPES, 10% fetal calf serum and 1-2 mM glutamine. The membrane preparation was performed as described in section 1. […] Non-specific binding was defined with 1 μM methiothepin. The binding reaction was carried out for 3.5 h at room temperature. During the incubation, the plates were shaken on a plate shaker at 100 rpm and terminated by filtration on Packard Unifilter GF/C (0.1% PEI) plates, followed by 2 wash cycles with ice-cold 50 mM Tris-HCl, 5 mM CaCl2.
# Data derived from liquid scintillation counting were analyzed by iterative non-linear regression analysis with the use of the Statistical Analysis System (SAS): a program similar to “LIGAND” as described by Munson and Rodbard (Anal. Biochem. 1980, 107, 220-239). Fitting was performed according to formulae described by Feldman (Anal. Biochem. 1972, 48, 317-338). IC50, nH and Ki values were expressed as geometrical mean.
row,Compound,Ki [nM]
1,"O=S(=O)(c1ccccc1)c1cnc2c(C3CCNCC3)cccc2c1 [Example 2, 3-(Phenylsulfonyl)-8-(piperidin-4-yl)quinoline hydrochloride]",< 100
2,"O=S(=O)(c1ccccc1)c1cnc2c(C3CNC3)cccc2c1 [Example 1, 8-(Azetidin-3-yl)-3-(phenylsulfonyl)quinoline hydrochloride]",< 100
3,"O=S(=O)(c1ccc(F)cc1)c1cnc2c(C3CCNCC3)cccc2c1 [Example 5, 3-(4-Fluorophenylsulfonyl)-8-(piperidin-4-yl)quinoline]",< 100

# Further lines, results first:
row,Ki [nM],Compound
1,< 100,"O=S(=O)(c1cccc(Br)c1)c1cnc2c(C3CCNCC3)cccc2c1 [Example 6, 3-(3-Bromophenylsulfonyl)-8-(piperidin-4-yl)quinoline]"
2,< 100,"O=S(=O)(c1cccc(N2CCCC2)c1)c1cnc2c(C3CCNCC3)cccc2c1 [Example 7, 8-(Piperidin-4-yl)-3-(3-(pyrrolidin-1-yl)phenylsulfonyl)quinoline]"
3,> 1000,"O=S(=O)(c1ccccc1)c1cnc2c(C3CCN(Cc4ccccc4)C3)cccc2c1 (centres unmarked) [Example 3, 8-(1-Benzylpyrrolidin-3-yl)-3-(phenylsulfonyl)quinoline]"
4,< 100,"O=S(=O)(c1cccc(C(F)(F)F)c1)c1cnc2c(C3CCNCC3)cccc2c1 [Example 4, 8-(Piperidin-4-yl)-3-(3-(trifluoromethyl)phenylsulfonyl)quinoline]"
